Legend:
[1] = human psychoactivity, literature; cited from earlier work
[2] = biological target: SERT (Homo sapiens, UniProt P31645); conditions: functional assay; cited from earlier work
[3] = Metabolic stability in human liver microsomes; format: in vitro ADME
From the text: Purpose: To determine the metabolic stability of a disclosed compound relative to its corresponding non-fluorinated analog. Metabolic stability assays measure the intrinsic clearance (CLint) of a compound, providing critical data needed to calculate other key pharmacokinetic parameters such as bioavailability and half-life (t1/2).
Methods: A high-throughput assay was used to determine metabolic stability of disclosed compounds and non-fluorinated analogs thereof in human liver microsomes. LC/MS analysis was used to quantify the percent compound remaining after incubation. The half-life (t1/2) was estimated from the slope of the initial linear range of the logarithmic curve of compound remaining (%) versus time, assuming first order kinetics.

SERT, sequence (P31645 whole entry, species assumed): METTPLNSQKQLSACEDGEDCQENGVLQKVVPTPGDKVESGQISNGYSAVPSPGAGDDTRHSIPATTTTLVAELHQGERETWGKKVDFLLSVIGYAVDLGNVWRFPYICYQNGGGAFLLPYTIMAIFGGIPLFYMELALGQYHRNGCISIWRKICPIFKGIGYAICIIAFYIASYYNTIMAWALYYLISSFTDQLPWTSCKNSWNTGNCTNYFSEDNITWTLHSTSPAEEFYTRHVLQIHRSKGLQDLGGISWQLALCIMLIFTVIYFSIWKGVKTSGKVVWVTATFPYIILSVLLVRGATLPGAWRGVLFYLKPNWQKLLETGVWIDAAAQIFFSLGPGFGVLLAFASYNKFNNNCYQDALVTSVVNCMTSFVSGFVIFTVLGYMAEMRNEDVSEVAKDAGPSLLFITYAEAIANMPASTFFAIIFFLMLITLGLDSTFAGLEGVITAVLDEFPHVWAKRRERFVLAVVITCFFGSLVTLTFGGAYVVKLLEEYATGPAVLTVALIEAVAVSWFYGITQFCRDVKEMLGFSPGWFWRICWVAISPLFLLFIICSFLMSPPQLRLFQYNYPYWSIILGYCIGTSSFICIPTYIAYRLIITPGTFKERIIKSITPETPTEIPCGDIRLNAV

CC(Cc1ccc2c(c1)OCO2)NCC(F)(F)F (centres unmarked) [MDTFEA, 3,4-methylenedioxy-N-trifluoroethylamphetamine]
active dose in humans [1]: > 500 mg

CC(N)Cc1ccc2c(c1)OC(F)(F)O2 (centres unmarked) [DiFMDA, Difluoromethylenedioxyamphetamine]
active dose in humans [1]: > 250 mg
SERT affinity [2]: between that of MDA and MDMA

CC(N)Cc1ccc2c(c1)OCO2 (centres unmarked) [MDA, 3,4-methylenedioxyamphetamine]
active dose in humans [1]: 80 to 160 mg

CC(Cc1ccc2c(c1)OCO2)NCCF.Cl (centres unmarked) [MDEA-F]
percent compound remaining ([3]; Time 0.0): 100.0%
percent compound remaining ([3]; Time 15.00): 81.80%
percent compound remaining ([3]; Time 30.00): 68.75%
percent compound remaining ([3]; Time 45.00): 65.35%
percent compound remaining ([3]; Time 60.00 (one hour of incubation), listed as ASR-1004): 42.05%
percent compound remaining ([3]; Time 60.00 (one hour of incubation), listed as MIDEA-F): 42%
half-life (t1/2) ([3]; estimated from slope of log % remaining versus time): about 57 minutes

Source: patent US12180176B2, “Fluorinated empathogens” (priority 2021, dated 2024)
